For experiment [1], the target named is sGC α1/β1 heterodimer (Homo sapiens (Human), UniProt Q02108+Q02153). The experiment is described as follows: Cell-based sGC functional assay (CASA assay), cGMP by HTRF. Particulars: CHO-K1/sGC cells; for Emax: CHO-K1, cGMP production as percentage of maximum of compound A (set to 100%), read-out: % Activation; for EC50: inflection point of cGMP production, 4P fit, read-out: IP. An outline of the steps: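 cGMP made in CHO-K1/sGC (human α1/β1) cells is read by HTRF after compound treatment for 1 hr at 37° C, following 30 min at 25° C with or without 1 μM DETA-NO; IBMX 0.5 mM present. Values are % of standard compound maximum; 4P fit.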
On the technique in general: Time-resolved FRET reads energy transfer from a long-lived donor to a nearby acceptor.

In experiment [2] the target is human recombinant sGC enzyme (Homo sapiens (Human), UniProt Q02108+Q02153). The experiment can be described thus: SEC competition binding assay with [3H] Compound B radioligand. Particulars: displacement of 1.6 nM [3H] Compound B, 24 h at 37° C. An outline of the steps:
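Competition format: [3H] Compound B (1.6 nM) displaced from human recombinant sGC over 24 h at 37° C. in triethanolamine pH 7.4 buffer with MgCl2, BSA, DTT, 300 μM DETA/NO and 400 μM GTP (1% DMSO). Gel-filtration eluates counted by liquid scintillation; 1 μM Compound B defined non-specific binding; Ki by one-site fit.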

Our source for the Emax, EC50 and Ki values is patent US10780092B2, “Fused pyrazine derivatives useful as soluble guanylate cyclase stimulators” (Merck Sharp & Dohme Corp., priority 2016, dated 2020).

By Ki is commonly meant a dissociation constant, usually derived from enzyme kinetics or from competition with a known ligand.

Take `CC(C)CCc1nc(-c2nc(N)c3c(n2)NC(=O)C3(C)c2ccc(C(F)(F)F)c(O)c2)cn2ccnc12` (stereo not drawn) [Example 64-B, 4-Amino-5-(3-hydroxy-4-(trifluoromethyl)phenyl)-2-(8-isopentylimidazo[1,2-a]pyrazin-6-yl)-5-methyl-5,7-dihydro-6H-pyrrolo[2,3-d]pyrimidin-6-one]: in experiment [1], the Emax came to 125% and the EC50 was determined as 1320 nM. In experiment [2], the Ki turned out to be 2.22 nM.

`CC1(c2ccc(Cl)c(O)c2)C(=O)Nc2nc(-c3cn4ccnc4c(CCC(F)(F)C(F)(F)F)n3)nc(N)c21` (stereo not drawn) [Example 65-A, 4-Amino-5-(4-chloro-3-hydroxyphenyl)-5-methyl-2-(8-(3,3,4,4,4-pentafluorobutyl)imidazo[1,2-a]pyrazin-6-yl)-5,7-dihydro-6H-pyrrolo[2,3-d]pyrimidin-6-one]: in experiment [1], the Emax came to 85% and the EC50 is 797 nM. Moreover, in experiment [2], the Ki is 2.26 nM.

With `CC1(c2ccc(O)c(Cl)c2)C(=O)Nc2nc(-c3cn4ncnc4c(Cc4ccc(F)cc4)n3)nc(N)c21` (stereo not drawn) [Example 66-B, 4-Amino-5-(3-chloro-4-hydroxyphenyl)-2-{8-[(4-fluorophenyl)methyl]-[1,2,4]triazolo[1,5-a]pyrazin-6-yl}-5-methyl-5,7-dihydro-6H-pyrrolo[2,3-d]pyrimidin-6-one], in experiment [1], the Emax amounted to 141% and the EC50 amounted to 2150 nM. Further, in experiment [2], the Ki is 2.57 nM.

For the compound `CC1(c2ccc(Cl)c(O)c2Cl)C(=O)Nc2nc(-c3cn4ncnc4c(CC4CCCCC4)n3)nc(N)c21` (stereo not drawn) [Example 67-A, 4-Amino-2-(8-(cyclohexylmethyl)-[1,2,4]triazolo[1,5-a]pyrazin-6-yl)-5-(2,4-dichloro-3-hydroxyphenyl)-5-methyl-5,7-dihydro-6H-pyrrolo[2,3-d]pyrimidin-6-one], in experiment [1], the Emax was 134% and the EC50 came to 728 nM. Besides, in experiment [2], the Ki came to 2.65 nM.

For the compound `CCCCc1nc(-c2nc(N)c3c(n2)NC(=O)C3(C)c2cccc(O)c2)cn2ncnc12` (stereo not drawn) [Example 68-B, 4-Amino-2-(8-butyl-[1,2,4]triazolo[1,5-a]pyrazin-6-yl)-5-(3-hydroxyphenyl)-5-methyl-5,7-dihydro-6H-pyrrolo[2,3-d]pyrimidin-6-one], in experiment [1], the Emax turned out to be 96% and the EC50 is 46 nM. Also, the inhibition constant Ki in experiment [2] was found to be 2.92 nM.

As to `CC1(c2ccc(Cl)c(O)c2Cl)C(=O)Nc2nc(-c3cn4ccnc4c(CC4CCCCC4)n3)nc(N)c21` (stereo not drawn) [Example 69-A, 4-Amino-2-(8-(cyclohexylmethyl)imidazo[1,2-a]pyrazin-6-yl)-5-(2,4-dichloro-3-hydroxyphenyl)-5-methyl-5,7-dihydro-6H-pyrrolo[2,3-d]pyrimidin-6-one], in experiment [1], the Emax turned out to be 108% and the EC50 came out at 1380 nM. Further, the Ki in experiment [2] amounted to 3.47 nM.

`CCCCc1nc(-c2nc(N)c3c(n2)NC(=O)C3(C)c2ccc(O)cc2)cn2ncnc12` (stereo not drawn) [Example 70-B, 4-Amino-2-(8-butyl-[1,2,4]triazolo[1,5-a]pyrazin-6-yl)-5-(4-hydroxyphenyl)-5-methyl-5,7-dihydro-6H-pyrrolo[2,3-d]pyrimidin-6-one]: in experiment [1], the Emax turned out to be 81% and the EC50 came out at 32 nM. For the same compound, in experiment [2], the Ki worked out at 3.96 nM.

Consider `CCCCc1nc(-c2nc(N)c3c(n2)NC(=O)C3(C)c2ccc(O)c(F)c2)cn2ncnc12` (stereo not drawn) [Example 71-B, 4-Amino-2-(8-butyl-[1,2,4]triazolo[1,5-a]pyrazin-6-yl)-5-(3-fluoro-4-hydroxyphenyl)-5-methyl-5,7-dihydro-6H-pyrrolo[2,3-d]pyrimidin-6-one], for which, in experiment [1], the Emax amounted to 81% and the EC50 stood at 30 nM. The inhibitory constant (Ki) in experiment [2] came out at 4.08 nM.

In the case of `CCCCc1nc(-c2nc(N)c3c(n2)NC(=O)C3(C)c2cc(O)c(Cl)cn2)cn2ccnc12` (stereo not drawn) [Example 72-B, 4-Amino-2-(8-butylimidazo[1,2-a]pyrazin-6-yl)-5-(5-chloro-4-hydroxypyridin-2-yl)-5-methyl-5,7-dihydro-6H-pyrrolo[2,3-d]pyrimidin-6-one], in experiment [1], the Emax is 84% and the EC50 was 3460 nM. In addition, the Ki in experiment [2] was 4.62 nM.

For the compound `CC1(c2ncc(Cl)c(O)c2Cl)C(=O)Nc2nc(-c3cn4ccnc4c(Cc4cc(F)cc(F)c4)n3)nc(N)c21` (stereo not drawn) [Example 73-A, 4-Amino-5-(3,5-dichloro-4-hydroxypyridin-2-yl)-2-{8-[(3,5-difluorophenyl)methyl]imidazo[1,2-a]pyrazin-6-yl}-5-methyl-5,7-dihydro-6H-pyrrolo[2,3-d]pyrimidin-6-one], in experiment [1], the Emax was 81% and the EC50 amounted to 694 nM. Further, the inhibition constant (Ki) in experiment [2] was 6.01 nM.

`CCCCc1nc(-c2nc(N)c3c(n2)NC(=O)C3(C)c2ccc(O)c(Cl)c2)cn2ncnc12` (stereo not drawn) [Example 74-B, 4-Amino-2-(8-butyl-[1,2,4]triazolo[1,5-a]pyrazin-6-yl)-5-(3-chloro-4-hydroxyphenyl)-5-methyl-5,7-dihydro-6H-pyrrolo[2,3-d]pyrimidin-6-one]: in experiment [1], the Emax is 122% and the EC50 was determined as 131 nM. For the same compound, in experiment [2], the Ki came to 6.17 nM.

In the case of `CCCCc1nc(-c2nc(N)c3c(n2)NC(=O)C3(C)c2ccc(O)c(Cl)c2)cn2ccnc12` (stereo not drawn) [Example 75-B, 4-Amino-2-(8-butylimidazo[1,2-a]pyrazin-6-yl)-5-(3-chloro-4-hydroxyphenyl)-5-methyl-5,7-dihydro-6H-pyrrolo[2,3-d]pyrimidin-6-one], in experiment [1], the Emax was found to be 153% and the EC50 is 770 nM. Also, the inhibitory constant (Ki) in experiment [2] amounted to 6.55 nM.

Take `CCCCc1nc(-c2nc(N)c3c(n2)NC(=O)C3(C)c2ccc(C(F)(F)F)c(O)c2)cn2ccnc12` (stereo not drawn) [Example 76-B, 4-Amino-2-(8-butylimidazo[1,2-a]pyrazin-6-yl)-5-(3-hydroxy-4-(trifluoromethyl)phenyl)-5-methyl-5,7-dihydro-6H-pyrrolo[2,3-d]pyrimidin-6-one]: in experiment [1], the Emax was found to be 110% and the EC50 was found to be 547 nM. Further, the Ki in experiment [2] stood at 7.89 nM.

Consider `CC1(c2ccc(O)c(Cl)c2)C(=O)Nc2nc(-c3cn4ccnc4c(CCC4CCCCC4)n3)nc(N)c21` (stereo not drawn) [Example 77-B, 4-Amino-5-(3-chloro-4-hydroxyphenyl)-2-(8-(2-cyclohexylethyl)imidazo[1,2-a]pyrazin-6-yl)-5-methyl-5,7-dihydro-6H-pyrrolo[2,3-d]pyrimidin-6-one], for which, in experiment [1], the Emax was 99% and the EC50 is 645 nM. Further, in experiment [2], the Ki was 8.79 nM.

Regarding `CC1(c2cccc(O)c2)C(=O)Nc2nc(-c3cn4ccnc4c(CCC(F)(F)C(F)(F)F)n3)nc(N)c21` (stereo not drawn) [Example 79-B, 4-Amino-5-(3-hydroxyphenyl)-5-methyl-2-(8-(3,3,4,4,4-pentafluorobutyl)imidazo[1,2-a]pyrazin-6-yl)-5,7-dihydro-6H-pyrrolo[2,3-d]pyrimidin-6-one], in experiment [1], the Emax was found to be 108% and the EC50 stood at 96 nM. In experiment [2], the inhibition constant Ki turned out to be 9.41 nM.

In the case of `CC1(c2ccc(O)cc2)C(=O)Nc2nc(-c3cn4ncnc4c(CCC(F)(F)C(F)(F)F)n3)nc(N)c21` (stereo not drawn) [Example 80-B, 4-Amino-5-(4-hydroxyphenyl)-5-methyl-2-(8-(3,3,4,4,4-pentafluorobutyl)-[1,2,4]triazolo[1,5-a]pyrazin-6-yl)-5,7-dihydro-6H-pyrrolo[2,3-d]pyrimidin-6-one], in experiment [1], the Emax was found to be 70% and the EC50 came out at 19 nM. Also, the Ki in experiment [2] came to 9.98 nM.

Turning to `CC1(c2ccc(O)cc2)C(=O)Nc2nc(-c3cn4ccnc4c(CCC(F)(F)C(F)(F)F)n3)nc(N)c21` (stereo not drawn) [Example 81-B, 4-Amino-5-(4-hydroxyphenyl)-5-methyl-2-(8-(3,3,4,4,4-pentafluorobutyl)imidazo[1,2-a]pyrazin-6-yl)-5,7-dihydro-6H-pyrrolo[2,3-d]pyrimidin-6-one], in experiment [1], the Emax stood at 131% and the EC50 came out at 352 nM. The inhibitory constant (Ki) in experiment [2] was 14 nM.

As for `CC1(c2cccc(O)c2)C(=O)Nc2nc(-c3cn4ccnc4c(CC4CCCCC4)n3)nc(N)c21` (stereo not drawn) [Example 82-B, 4-Amino-2-(8-(cyclohexylmethyl)imidazo[1,2-a]pyrazin-6-yl)-5-(3-hydroxyphenyl)-5-methyl-5,7-dihydro-6H-pyrrolo[2,3-d]pyrimidin-6-one], in experiment [1], the Emax was 111% and the EC50 was found to be 207 nM. For the same compound, in experiment [2], the inhibition constant Ki worked out at 0.402 nM.

On to `CC1(c2cccc(O)c2)C(=O)Nc2nc(-c3cn4ccnc4c(CCC4CCCCC4)n3)nc(N)c21` (stereo not drawn) [Example 83-B, 4-Amino-2-(8-(2-cyclohexylethyl)imidazo[1,2-a]pyrazin-6-yl)-5-(3-hydroxyphenyl)-5-methyl-5,7-dihydro-6H-pyrrolo[2,3-d]pyrimidin-6-one], for which, in experiment [1], the Emax came to 109% and the EC50 stood at 222 nM. The inhibition constant (Ki) in experiment [2] was found to be 5.12 nM.

On to `CC1(c2ccc(O)c(F)c2)C(=O)Nc2nc(-c3cn4ccnc4c(CCC4CCCCC4)n3)nc(N)c21` (stereo not drawn) [Example 84-B, 4-Amino-2-(8-(2-cyclohexylethyl)imidazo[1,2-a]pyrazin-6-yl)-5-(3-fluoro-4-hydroxyphenyl)-5-methyl-5,7-dihydro-6H-pyrrolo[2,3-d]pyrimidin-6-one], for which, in experiment [1], the Emax is 121% and the EC50 amounted to 313 nM. In experiment [2], the inhibition constant Ki was found to be 3.46 nM.

Consider `CC1(c2ccc(O)cc2)C(=O)Nc2nc(-c3cn4ccnc4c(CCC4CCCCC4)n3)nc(N)c21` (stereo not drawn) [Example 85-B, 4-Amino-2-(8-(2-cyclohexylethyl)imidazo[1,2-a]pyrazin-6-yl)-5-(4-hydroxyphenyl)-5-methyl-5,7-dihydro-6H-pyrrolo[2,3-d]pyrimidin-6-one], for which, in experiment [1], the Emax amounted to 130% and the EC50 was determined as 605 nM. Also, the inhibition constant Ki in experiment [2] is 4.82 nM.
